According to US7960129B2, “Assays and methods for determining STIM2 activity” (The Queen's Medical Center, priority 2007, dated 2011):
Read-outs that look alike come from different tables or passages of the source. Each block holds one compound with its values, some of them ahead of it.

How the values were obtained:
CRAC currents = settings: cited from earlier work; for doses that inhibit CRAC currents: high doses
[1] = target: T1, STIM2+CRACM1-expressing HEK293 cells (Homo sapiens, UniProt Q9P246); assay: Whole-cell patch-clamp of CRAC currents in STIM2+CRACM1 cells; assay type: cell-based; settings: for suppression of the secondary phase of CRAC current: added to pipette solution: ATP 3 mM, GTP 0.3 mM, calmodulin 100 μM, [Ca2+]i 150 nM
T1 construct: expressed in transfected cells; host or cells: HEK293
T1 sequence (Q9P246 15-746): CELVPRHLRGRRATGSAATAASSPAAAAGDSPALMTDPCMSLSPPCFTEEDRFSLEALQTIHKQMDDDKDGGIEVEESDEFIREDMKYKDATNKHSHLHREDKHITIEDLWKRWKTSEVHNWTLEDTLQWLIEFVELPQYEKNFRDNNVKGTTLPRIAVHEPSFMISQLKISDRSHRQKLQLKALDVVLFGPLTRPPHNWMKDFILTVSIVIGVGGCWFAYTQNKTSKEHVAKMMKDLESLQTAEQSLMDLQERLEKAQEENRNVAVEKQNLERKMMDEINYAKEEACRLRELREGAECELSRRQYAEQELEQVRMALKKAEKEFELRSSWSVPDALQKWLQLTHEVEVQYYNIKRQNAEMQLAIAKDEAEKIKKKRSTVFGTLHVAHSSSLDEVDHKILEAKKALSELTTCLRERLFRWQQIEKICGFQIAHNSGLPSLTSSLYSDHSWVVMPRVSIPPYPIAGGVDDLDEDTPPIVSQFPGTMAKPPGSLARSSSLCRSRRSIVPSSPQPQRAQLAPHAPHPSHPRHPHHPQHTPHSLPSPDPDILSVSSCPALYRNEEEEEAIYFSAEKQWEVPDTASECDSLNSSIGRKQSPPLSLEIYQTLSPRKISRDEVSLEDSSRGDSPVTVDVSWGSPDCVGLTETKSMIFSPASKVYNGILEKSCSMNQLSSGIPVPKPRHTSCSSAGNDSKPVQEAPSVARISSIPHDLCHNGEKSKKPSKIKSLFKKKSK
Description: Patch-clamp experiments were performed in the tight-seal whole-cell configuration at 21-25° C. High-resolution current recordings were acquired using the EPC-9 (HEKA). Voltage ramps of 50 ms duration spanning a range of −100 to +100 mV were delivered from a holding potential of 0 mV at a rate of 0.5 Hz over a period of 100-700 sec. All voltages were corrected for a liquid junction potential of 10 mV (3 mV with Cl^− as main internal anion). Currents were filtered at 2.9 kHz and digitized at 100 μs intervals. Capacitive currents were determined and corrected before each voltage ramp. Extracting the current amplitude at −80 mV from individual ramp current records assessed the low-resolution temporal development of currents. Where applicable, statistical errors of averaged data are given as means±S.E.M. with n determinations. Standard external solutions were as follows (in mM): 120 NaCl, 10 CsCl, 2.8 KCl, 2 MgCl2, 10 CaCl2, 10 TEA-Cl, 10 HEPES, 10 glucose, pH 7.2 with NaOH, 300 mOsm. In some experiments, 2 μM or 50 μM 2-aminoethyldiphenyl borate (2-APB) or 10 μM G418 were added to the standard external solution and applied through wide-tipped puffer pipettes. Standard internal solutions were as follows (in mM): 120 Cs-glutamate, 8 NaCl, 10 Cs-BAPTA, 3 MgCl2, 10 HEPES, 0.02 IP3, pH 7.2 with CsOH, 300 mOsm. As indicated in the figure legends, for some experiments [Ca^2+]i was buffered to 150 nM by 20 mM Cs•BAPTA and 8 mM CaCl2 or 20 mM Cs•EGTA and 8.9 mM CaCl2. For passive-depletion experiments, the internal solution was supplemented with Cs•BAPTA in the absence of IP3 and Ca^2+. In some experiments, Cs-glutamate and Cs•BAPTA were equimolarly replaced by KCl and K•BAPTA. In others, G418, Na•ATP and Na•GTP or calmodulin were added to intracellular solutions as specified in the figure legends. All chemicals were purchased from Sigma-Aldrich Co.

[2] = target: T2, STIM1+CRACM1-expressing HEK293 cells (Homo sapiens, UniProt Q13586+Q96D31); assay: Whole-cell patch-clamp of CRAC currents in STIM1+CRACM1 cells; assay type: cell-based; settings: 50 μM 2-APB; no IP3, [Ca2+]i buffered to 150 nM
T2 construct: expressed in transfected cells; host or cells: HEK293
T2 sequence (Q13586 23-685): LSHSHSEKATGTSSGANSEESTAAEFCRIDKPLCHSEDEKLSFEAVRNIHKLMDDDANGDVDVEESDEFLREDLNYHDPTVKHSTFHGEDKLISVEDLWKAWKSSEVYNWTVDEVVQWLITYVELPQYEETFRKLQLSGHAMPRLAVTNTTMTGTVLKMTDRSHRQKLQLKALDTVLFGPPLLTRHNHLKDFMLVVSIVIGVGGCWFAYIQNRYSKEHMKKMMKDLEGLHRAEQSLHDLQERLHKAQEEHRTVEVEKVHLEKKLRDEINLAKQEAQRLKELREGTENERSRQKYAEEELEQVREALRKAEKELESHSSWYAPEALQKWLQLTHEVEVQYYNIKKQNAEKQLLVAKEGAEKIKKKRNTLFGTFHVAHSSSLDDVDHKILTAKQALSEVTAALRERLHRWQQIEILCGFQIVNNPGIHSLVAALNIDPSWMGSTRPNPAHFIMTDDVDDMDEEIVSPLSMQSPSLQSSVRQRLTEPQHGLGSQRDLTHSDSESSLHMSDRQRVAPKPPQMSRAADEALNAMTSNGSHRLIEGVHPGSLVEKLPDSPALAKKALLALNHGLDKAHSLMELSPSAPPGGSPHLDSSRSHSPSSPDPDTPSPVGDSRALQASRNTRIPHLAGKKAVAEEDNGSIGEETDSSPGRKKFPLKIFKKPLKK
T2 sequence (Q96D31 whole entry): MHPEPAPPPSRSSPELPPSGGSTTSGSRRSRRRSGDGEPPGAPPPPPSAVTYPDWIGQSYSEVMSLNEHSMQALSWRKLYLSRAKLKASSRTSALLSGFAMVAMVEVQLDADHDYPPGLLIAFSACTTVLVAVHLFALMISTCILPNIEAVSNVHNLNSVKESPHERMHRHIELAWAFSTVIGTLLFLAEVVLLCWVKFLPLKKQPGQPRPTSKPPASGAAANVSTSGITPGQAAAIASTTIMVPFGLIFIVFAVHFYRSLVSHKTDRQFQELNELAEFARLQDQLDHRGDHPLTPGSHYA
Description: Patch-clamp experiments were performed in the tight-seal whole-cell configuration at 21-25° C. High-resolution current recordings were acquired using the EPC-9 (HEKA). […] Currents were filtered at 2.9 kHz and digitized at 100 μs intervals. Capacitive currents were determined and corrected before each voltage ramp. Extracting the current amplitude at −80 mV from individual ramp current records assessed the low-resolution temporal development of currents. […] All chemicals were purchased from Sigma-Aldrich Co.

Compound: NCCOB(c1ccccc1)c1ccccc1 [2-APB, 2-aminoethoxydiphenyl borate]
doses that inhibit CRAC currents (CRAC currents; unit as printed in b55): ≥ 10 mM
doses that inhibit CRAC currents (CRAC currents): ≥ 0.01 mM
doses with facilitatory effects on CRAC currents (CRAC currents; low doses): ≤ 5 µM
CRAC currents activated by 2-APB ([1]; 50 μM 2-APB, stores depleted by IP3 or kept full ([Ca2+]i 150 nM), cells grown without G418): large, transient CRAC currents
CRACM1 currents induced by external application of 2-APB ([1]; 2 mM 2-APB as printed, cells grown in G418, no IP3-induced current): large CRACM1 currents
activation time of 2-APB-induced current ([1]; high-resolution recording at fixed membrane potential): within a few seconds
effect of 2-APB on G418-mediated suppression of CRAC currents ([1]; regardless of the filling state of stores): capable of overcoming the G418-mediated suppression
2-APB-induced current without store depletion [2]: not observed

Compound: CN[C@@H]1[C@@H](O)[C@@H](O[C@@H]2[C@@H](O)[C@H](O[C@H]3O[C@H]([C@@H](C)O)[C@@H](O)[C@H](O)[C@H]3N)[C@@H](N)C[C@H]2N)OC[C@]1(C)O [G418]
IC50 [1]: 520 nM
IC50 ([1]; half-maximal inhibitory concentration for IP3-induced CRACM1 currents, cells perfused with G418, both phases of the current): 500 nM

suppression of the secondary phase of CRAC current [1]: secondary phase was observed
Compound: calmodulin

suppression of the secondary phase of CRAC current [1]: failed to suppress
Compound: Nc1nc2c(ncn2[C@@H]2O[C@H](COP(=O)(O)OP(=O)(O)OP(=O)(O)O)[C@@H](O)[C@H]2O)c(=O)[nH]1 [GTP]

suppression of the secondary phase of CRAC current [1]: failed to suppress
Compound: Nc1ncnc2c1ncn2[C@@H]1O[C@H](COP(=O)(O)OP(=O)(O)OP(=O)(O)O)[C@@H](O)[C@H]1O [ATP]
